{
  "source": "paper PMC5218480",
  "about": "(PLoS ONE, 2017)",
  "system": "MV-4-11 cells",
  "assay": "Gene expression microarray analysis (Affymetrix PrimeView) and GSEA",
  "assay_type": "cell-based, human",
  "parameters": "RFU PODN (11730768_x_at) / Fold change /veh PODN (11730768_x_at) / RFU LINC00158 (11744669_a_at) / Fold change /veh LINC00158 (11744669_a_at) / RFU DUSP10 (11751237_a_at) / Fold change /veh DUSP10 (11751237_a_at) / RFU ID3 (11757404_x_at) / Fold change /veh ID3 (11757404_x_at) / RFU PLEKHG5 (11737974_s_at) / Fold change /veh PLEKHG5 (11737974_s_at) / RFU LRRC4B (11730491_at) / Fold change /veh LRRC4B (11730491_at) / RFU GIMAP4 (11747438_a_at) / Fold change /veh GIMAP4 (11747438_a_at) / RFU KRT8 (11758183_x_at) / Fold change /veh KRT8 (11758183_x_at) / RFU CNN1 (11734310_a_at) / Fold change /veh CNN1 (11734310_a_at) / RFU VPS37D (11726825_at) / Fold change /veh VPS37D (11726825_at) / RFU C10orf10 (11716522_x_at) / Fold change /veh C10orf10 (11716522_x_at) / RFU KIR2DL2 /// KIR2DL4 /// KIR2DL5A /// KIR2DL5B /// KIR2DS1 /// KIR2DS2 /// KIR2DS3 /// KIR2DS4 /// KIR3DL3 /// KIR3DL3 /// KIR3DS1 (11738374_at) / Fold change /veh KIR2DL2 /// KIR2DL4 /// KIR2DL5A /// KIR2DL5B /// KIR2DS1 /// KIR2DS2 /// KIR2DS3 /// KIR2DS4 /// KIR3DL3 /// KIR3DL3 /// KIR3DS1 (11738374_at) / RFU C1QL1 (11718748_at) / Fold change /veh C1QL1 (11718748_at) / RFU TMPRSS4 (11747572_a_at) / Fold change /veh TMPRSS4 (11747572_a_at) / RFU HAMP (11756126_x_at) / Fold change /veh HAMP (11756126_x_at) / RFU RNFT2 (11725882_a_at) / Fold change /veh RNFT2 (11725882_a_at) / RFU NR4A2 (11747474_a_at) / Fold change /veh NR4A2 (11747474_a_at) / RFU ABCC12 (11746883_a_at) / Fold change /veh ABCC12 (11746883_a_at) / RFU TMEM136 (11760407_x_at) / Fold change /veh TMEM136 (11760407_x_at) / RFU CLDN22 /// WWC2 (11732394_at) / Fold change /veh CLDN22 /// WWC2 (11732394_at) / RFU HLA-DPB1 (11760878_x_at) / Fold change /veh HLA-DPB1 (11760878_x_at) / RFU SPINT1 (11716480_a_at) / Fold change /veh SPINT1 (11716480_a_at) / RFU GAP43 (11754022_s_at) / Fold change /veh GAP43 (11754022_s_at) / RFU A4GNT (11735810_at) / Fold change /veh A4GNT (11735810_at) / RFU PRB3 (11715151_x_at) / Fold change /veh PRB3 (11715151_x_at) / RFU TUBB4B (11761932_at) / Fold change /veh TUBB4B (11761932_at) / RFU CAPN14 (11732068_a_at) / Fold change /veh CAPN14 (11732068_a_at) / RFU TMCC2 (11721928_a_at) / Fold change /veh TMCC2 (11721928_a_at) / RFU IRGQ (11745062_a_at) / Fold change /veh IRGQ (11745062_a_at) / RFU FAM174B (11720279_a_at) / Fold change /veh FAM174B (11720279_a_at) / RFU TMPRSS4 (11748680_a_at) / Fold change /veh TMPRSS4 (11748680_a_at) / RFU FAM212B (11763350_a_at) / Fold change /veh FAM212B (11763350_a_at) / RFU PLEKHG5 (11743358_a_at) / Fold change /veh PLEKHG5 (11743358_a_at) / RFU ZSCAN30 (11745921_a_at) / Fold change /veh ZSCAN30 (11745921_a_at) / RFU CMKLR1 (11741424_a_at) / Fold change /veh CMKLR1 (11741424_a_at) / RFU LOC101060620 /// MAPK8IP1 (11723275_at) / Fold change /veh LOC101060620 /// MAPK8IP1 (11723275_at) / RFU SPTSSB (11747773_x_at) / Fold change /veh SPTSSB (11747773_x_at) / RFU PRSS12 (11739890_at) / Fold change /veh PRSS12 (11739890_at) / RFU BIN1 (11741810_x_at) / Fold change /veh BIN1 (11741810_x_at) / RFU WNT11 (11732464_a_at) / Fold change /veh WNT11 (11732464_a_at) / RFU C10orf10 (11716521_a_at) / Fold change /veh C10orf10 (11716521_a_at) / RFU C5orf56 (11738089_at) / Fold change /veh C5orf56 (11738089_at) / RFU CYB561 (11721691_x_at) / Fold change /veh CYB561 (11721691_x_at) / RFU ANKRD19P (11752326_a_at) / Fold change /veh ANKRD19P (11752326_a_at) / RFU OR2T12 /// OR2T33 /// OR2T8 (11738714_s_at) / Fold change /veh OR2T12 /// OR2T33 /// OR2T8 (11738714_s_at) / RFU VCAN (11748164_a_at) / Fold change /veh VCAN (11748164_a_at) / RFU JSRP1 (11732532_at) / Fold change /veh JSRP1 (11732532_at) / RFU KRTAP10-11 (11738290_x_at) / Fold change /veh KRTAP10-11 (11738290_x_at) / RFU MYO3A (11730013_a_at) / Fold change /veh MYO3A (11730013_a_at) / RFU EBF3 (11725865_a_at) / Fold change /veh EBF3 (11725865_a_at) / RFU CAMK2N1 (11719241_x_at) / Fold change /veh CAMK2N1 (11719241_x_at) / RFU C5orf56 (11738088_a_at) / Fold change /veh C5orf56 (11738088_a_at) / RFU OLFML3 (11715873_a_at) / Fold change /veh OLFML3 (11715873_a_at) / RFU LOC100653217 /// NTM (11731650_a_at) / Fold change /veh LOC100653217 /// NTM (11731650_a_at) / RFU MAPK11 (11762145_a_at) / Fold change /veh MAPK11 (11762145_a_at) / RFU FIZ1 (11724087_x_at) / Fold change /veh FIZ1 (11724087_x_at) / RFU OASL (11726364_x_at) / Fold change /veh OASL (11726364_x_at) / RFU SOX15 (11748057_x_at) / Fold change /veh SOX15 (11748057_x_at) / RFU CD79A (11719716_a_at) / Fold change /veh CD79A (11719716_a_at) / RFU HIST1H1D (11736915_at) / Fold change /veh HIST1H1D (11736915_at) / RFU CASKIN2 (11723855_a_at) / Fold change /veh CASKIN2 (11723855_a_at) / RFU LOC730098 (11760151_x_at) / Fold change /veh LOC730098 (11760151_x_at) / RFU OR4N2 (11742367_at) / Fold change /veh OR4N2 (11742367_at) / RFU PRRT2 (11749266_a_at) / Fold change /veh PRRT2 (11749266_a_at) / RFU SNX32 (11753110_a_at) / Fold change /veh SNX32 (11753110_a_at) / RFU CDHR5 (11726645_a_at) / Fold change /veh CDHR5 (11726645_a_at) / RFU RCAN1 (11760418_a_at) / Fold change /veh RCAN1 (11760418_a_at) / RFU FAM167A (11723789_a_at) / Fold change /veh FAM167A (11723789_a_at) / RFU FAM26E (11764081_at) / Fold change /veh FAM26E (11764081_at) / RFU ISYNA1 (11749810_s_at) / Fold change /veh ISYNA1 (11749810_s_at) / RFU ACY1 (11761880_at) / Fold change /veh ACY1 (11761880_at) / RFU 11764098_at / Fold change /veh 11764098_at / RFU SAMD14 (11745864_x_at) / Fold change /veh SAMD14 (11745864_x_at) / RFU NPB (11741838_a_at) / Fold change /veh NPB (11741838_a_at) / RFU TMPRSS6 (11731388_a_at) / Fold change /veh TMPRSS6 (11731388_a_at) / RFU KRTAP10-2 (11738614_at) / Fold change /veh KRTAP10-2 (11738614_at) / RFU ARHGAP8 /// PRR5-ARHGAP8 (11727945_x_at) / Fold change /veh ARHGAP8 /// PRR5-ARHGAP8 (11727945_x_at) / RFU KRTAP5-7 /// NADSYN1 (11734609_at) / Fold change /veh KRTAP5-7 /// NADSYN1 (11734609_at) / RFU RASL12 (11751679_a_at) / Fold change /veh RASL12 (11751679_a_at) / RFU CDKN2B (11736163_a_at) / Fold change /veh CDKN2B (11736163_a_at) / RFU PRF1 (11729649_at) / Fold change /veh PRF1 (11729649_at) / RFU, ZNF638 /// ZNF638-IT1 / Fold change vs veh, ZNF638 /// ZNF638-IT1 / RFU, PANK3 / Fold change vs veh, PANK3 / RFU, SH3YL1 / Fold change vs veh, SH3YL1 / RFU, ZEB2 / Fold change vs veh, ZEB2 / RFU, NRIP1 / Fold change vs veh, NRIP1 / RFU, PTTG1IP / Fold change vs veh, PTTG1IP / RFU, CAPN2 / Fold change vs veh, CAPN2 / RFU, MED14 / Fold change vs veh, MED14 / RFU, SNORA58 / Fold change vs veh, SNORA58 / RFU, C1orf63 / Fold change vs veh, C1orf63 / RFU, LRRFIP1 / Fold change vs veh, LRRFIP1 / RFU, NDUFAF7 / Fold change vs veh, NDUFAF7 / RFU, SLC12A2 / Fold change vs veh, SLC12A2 / RFU, IBTK / Fold change vs veh, IBTK / RFU, ESF1 / Fold change vs veh, ESF1 / Fold change vs veh, TMEM50B / RFU, TAOK1 / Fold change vs veh, TAOK1 / RFU, ACBD3 / Fold change vs veh, ACBD3 / RFU, TMA16 / Fold change vs veh, TMA16 / RFU, RWDD3 / Fold change vs veh, RWDD3 / RFU, BCAT1 / Fold change vs veh, BCAT1 / RFU, EDEM3 / Fold change vs veh, EDEM3 / RFU, TMEM33 / Fold change vs veh, TMEM33 / RFU, WDR75 / Fold change vs veh, WDR75 / RFU, AHCTF1 / Fold change vs veh, AHCTF1 / RFU, TFRC / Fold change vs veh, TFRC / RFU, ZDHHC17 / Fold change vs veh, ZDHHC17 / RFU, NOM1 / Fold change vs veh, NOM1 / RFU, ARL8B / Fold change vs veh, ARL8B / RFU, ZBTB11 / Fold change vs veh, ZBTB11 / RFU, TAMM41 / Fold change vs veh, TAMM41 / RFU, KIAA1704 /// LOC100996395 / Fold change vs veh, KIAA1704 /// LOC100996395 / RFU, ING1 / Fold change vs veh, ING1 / RFU, TRMT61B / Fold change vs veh, TRMT61B / RFU, FUBP3 / Fold change vs veh, FUBP3 / RFU, TP53 / Fold change vs veh, TP53 / RFU, TNKS2 / Fold change vs veh, TNKS2 / RFU, ZFP14 / Fold change vs veh, ZFP14 / RFU, ACTR2 / Fold change vs veh, ACTR2 / RFU, PPP3R1 / Fold change vs veh, PPP3R1 / RFU, PIK3R1 / Fold change vs veh, PIK3R1 / RFU, HNRNPA1 / Fold change vs veh, HNRNPA1 / RFU, RNF170 / Fold change vs veh, RNF170 / RFU, ZNF28 / Fold change vs veh, ZNF28 / RFU, RNGTT / Fold change vs veh, RNGTT / RFU, OGT / Fold change vs veh, OGT / RFU, BRD1 / Fold change vs veh, BRD1 / RFU, MARS / Fold change vs veh, MARS / RFU, ZNF655 / Fold change vs veh, ZNF655 / RFU, FAHD1 / Fold change vs veh, FAHD1 / RFU, BDP1 / Fold change vs veh, BDP1 / RFU, LRRCC1 / Fold change vs veh, LRRCC1 / RFU, ARID1A / Fold change vs veh, ARID1A / RFU, ZNF146 / Fold change vs veh, ZNF146 / RFU, ZNF330 / Fold change vs veh, ZNF330 / RFU, GPN3 / Fold change vs veh, GPN3 / RFU, C9orf123 / Fold change vs veh, C9orf123 / RFU, N4BP2L2 / Fold change vs veh, N4BP2L2 / RFU, ARFIP1 / Fold change vs veh, ARFIP1 / RFU, FAM179B / Fold change vs veh, FAM179B / RFU, BCL10 / Fold change vs veh, BCL10 / RFU, UHRF1BP1L / Fold change vs veh, UHRF1BP1L / RFU, BET1 / Fold change vs veh, BET1 / RFU, CNOT2 / Fold change vs veh, CNOT2 / RFU, ZNF268 / Fold change vs veh, ZNF268 / Fold change vs veh, ZNF507 / RFU, DGCR2 / Fold change vs veh, DGCR2 / RFU, WDSUB1 / Fold change vs veh, WDSUB1 / Fold change vs veh, HSP90B1 /// MIR3652 / RFU, ADSS / Fold change vs veh, ADSS / RFU, GK / Fold change vs veh, GK / RFU, ZNF148 / Fold change vs veh, ZNF148 / RFU, TAF9 / Fold change vs veh, TAF9 / RFU, SLC1A5 / Fold change vs veh, SLC1A5 / RFU, SLMO2 / Fold change vs veh, SLMO2 / RFU, ABCC4 / Fold change vs veh, ABCC4 / RFU, LOC101060439 /// RAP1B / Fold change vs veh, LOC101060439 /// RAP1B / RFU, RFX7 / Fold change vs veh, RFX7 / RFU, GTPBP10 / Fold change vs veh, GTPBP10 / RFU, CNEP1R1 / Fold change vs veh, CNEP1R1 / RFU, BIVM-ERCC5 /// ERCC5 / Fold change vs veh, BIVM-ERCC5 /// ERCC5 / RFU, ILF3 / Fold change vs veh, ILF3 / RFU 11762660_at / Fold change /veh 11762660_at / RFU VCAN (11757783_s_at) / Fold change /veh VCAN (11757783_s_at) / RFU DDX43 (11728927_at) / Fold change /veh DDX43 (11728927_at) / RFU KRT8 (11758188_x_at) / Fold change /veh KRT8 (11758188_x_at) / RFU NKD1 (11759106_at) / Fold change /veh NKD1 (11759106_at) / RFU SRD5A1 (11742802_a_at) / Fold change /veh SRD5A1 (11742802_a_at) / RFU TPSAB1 /// TPSB2 (11721975_s_at) / Fold change /veh TPSAB1 /// TPSB2 (11721975_s_at) / RFU GSTM3 (11746129_a_at) / Fold change /veh GSTM3 (11746129_a_at) / RFU IL23R (11737362_x_at) / Fold change /veh IL23R (11737362_x_at) / RFU TMEM51 (11727254_a_at) / Fold change /veh TMEM51 (11727254_a_at) / RFU PIWIL2 (11732686_x_at) / Fold change /veh PIWIL2 (11732686_x_at) / RFU ORM1 (11744905_x_at) / Fold change /veh ORM1 (11744905_x_at) / RFU CCDC152 (11743942_at) / Fold change /veh CCDC152 (11743942_at) / RFU ECM1 (11717891_a_at) / Fold change /veh ECM1 (11717891_a_at) / RFU IL23R (11748794_a_at) / Fold change /veh IL23R (11748794_a_at) / RFU TNFAIP8L3 (11732012_x_at) / Fold change /veh TNFAIP8L3 (11732012_x_at) / RFU MBOAT4 (11741988_at) / Fold change /veh MBOAT4 (11741988_at) / RFU 11764193_at / Fold change /veh 11764193_at / RFU TMEM53 (11763286_at) / Fold change /veh TMEM53 (11763286_at) / RFU MAGEB2 (11727129_at) / Fold change /veh MAGEB2 (11727129_at) / RFU TMEM200A (11744735_a_at) / Fold change /veh TMEM200A (11744735_a_at) / RFU CCDC152 (11751479_a_at) / Fold change /veh CCDC152 (11751479_a_at) / RFU FAM211A (11726209_a_at) / Fold change /veh FAM211A (11726209_a_at) / RFU RGS16 (11746705_a_at) / Fold change /veh RGS16 (11746705_a_at) / RFU VCAN (11755009_s_at) / Fold change /veh VCAN (11755009_s_at) / RFU RHOB (11743442_s_at) / Fold change /veh RHOB (11743442_s_at) / RFU RGS16 (11720943_a_at) / Fold change /veh RGS16 (11720943_a_at) / RFU RGS16 (11720944_at) / Fold change /veh RGS16 (11720944_at) / RFU, VPS4B / Fold change vs veh, VPS4B / RFU, CREB1 / Fold change vs veh, CREB1 / RFU, DNAJC13 / Fold change vs veh, DNAJC13 / RFU, GNAQ / Fold change vs veh, GNAQ / RFU, CDK5R1 / Fold change vs veh, CDK5R1 / RFU, ZRANB3 / Fold change vs veh, ZRANB3 / RFU, CUL4A / Fold change vs veh, CUL4A / RFU, CCNY / Fold change vs veh, CCNY / RFU, UFL1 / Fold change vs veh, UFL1 / RFU, COG3 / Fold change vs veh, COG3 / RFU, DIAPH2 / Fold change vs veh, DIAPH2 / RFU, SKA2 / Fold change vs veh, SKA2 / RFU, AFF3 / Fold change vs veh, AFF3 / RFU, LMF1 / Fold change vs veh, LMF1 / RFU, IPO11 / Fold change vs veh, IPO11 / RFU, DFFB / Fold change vs veh, DFFB / RFU, FOXP1 / Fold change vs veh, FOXP1 / RFU, CARD8 / Fold change vs veh, CARD8 / RFU, STRN3 / Fold change vs veh, STRN3 / RFU, ADK / Fold change vs veh, ADK / RFU, RASSF2 / Fold change vs veh, RASSF2 / RFU, WIPF1 / Fold change vs veh, WIPF1 / RFU, LARP1B / Fold change vs veh, LARP1B / RFU, RASA1 / Fold change vs veh, RASA1 / RFU, RB1 / Fold change vs veh, RB1 / RFU, PPFIA1 / Fold change vs veh, PPFIA1 / RFU, MAT2A / Fold change vs veh, MAT2A / RFU, CCT5 / Fold change vs veh, CCT5 / RFU, WDR92 / Fold change vs veh, WDR92 / RFU, CUX1 / Fold change vs veh, CUX1 / RFU, TTC7A / Fold change vs veh, TTC7A / RFU, TMEM135 / Fold change vs veh, TMEM135 / RFU, DEPTOR / Fold change vs veh, DEPTOR / RFU, CPM / Fold change vs veh, CPM / RFU, DNAJB6 / Fold change vs veh, DNAJB6 / RFU, CACNA2D3 / Fold change vs veh, CACNA2D3 / RFU, DTX4 / Fold change vs veh, DTX4 / RFU, TFCP2 / Fold change vs veh, TFCP2 / RFU, GMCL1 /// GMCL1P1 / Fold change vs veh, GMCL1 /// GMCL1P1 / RFU, AEBP2 / Fold change vs veh, AEBP2 / RFU, SNHG1 /// SNORD22 /// SNORD25 /// SNORD26 /// SNORD27 /// SNORD28 /// SNORD29 /// SNORD31 / Fold change vs veh, SNHG1 /// SNORD22 /// SNORD25 /// SNORD26 /// SNORD27 /// SNORD28 /// SNORD29 /// SNORD31 / Fold change (Aza/veh), C12orf56 (ProbeSet 11735607_a_at) / Fold change (ACY-1035/veh), C12orf56 (ProbeSet 11735607_a_at) / Fold change (Aza/veh), FGFR1OP (ProbeSet 11751329_s_at) / Fold change (ACY-1035/veh), FGFR1OP (ProbeSet 11751329_s_at) / Fold change (Aza/veh), VPS36 (ProbeSet 11739960_a_at) / Fold change (ACY-1035/veh), VPS36 (ProbeSet 11739960_a_at) / RFU SYPL1 (11715823_x_at) / Fold change /veh SYPL1 (11715823_x_at) / RFU IGFBP7 (11715501_s_at) / Fold change /veh IGFBP7 (11715501_s_at) / RFU REEP3 (11722064_at) / Fold change /veh REEP3 (11722064_at) / RFU IGLL1 (11728026_x_at) / Fold change /veh IGLL1 (11728026_x_at): dose or concentration left out as unconfirmed",
  "details": "MV-4-11 cells, 48 hours",
  "data": [
    {"smiles": "Nc1ccc(-c2cccs2)cc1NC(=O)c1ccc2c(c1)cc(C1CC1)n2CCN1CCOCC1", "note": "[ACY-1035]", "values": [
      {"measurement": "RFU OR2T12 /// OR2T33 /// OR2T8 (11738714_s_at)", "result": 6.34, "unit": "RFU"}
    ]}
  ]
}
